According to ChEMBL document CHEMBL4725230, “Syntheses and pharmacokinetic evaluations of four metabolites of 2-(4-(2-((1H-benzo[d]imidazol-2-yl)thio)ethyl)piperazin-1-yl)-N-(6-methyl-2,4-bis-(methylthio)pyridin-3-yl)acetamide hydrochloride [K-604], an acyl-CoA:cholesterol O-acyltransferase-1 inhibitor” (Bioorg Med Chem, 2020):

Columns and labels:
Cytochrome P450 3A5 [1] = target: T1, Cytochrome P450 3A5 (Homo sapiens, UniProt P20815); assay: Drug metabolism in human liver microsomes assessed as CYP3A5-mediated 2-(4-(2-((1H-Benzo[d]imidazol-2-yl)thio)ethyl)piperazin-1-yl)-N-(6-methyl-4-(methylsulfinyl)-2-(methylthio)pyridin-3-yl)acetamide formation; assay type: ADME
T1 sequence (P20815 whole entry): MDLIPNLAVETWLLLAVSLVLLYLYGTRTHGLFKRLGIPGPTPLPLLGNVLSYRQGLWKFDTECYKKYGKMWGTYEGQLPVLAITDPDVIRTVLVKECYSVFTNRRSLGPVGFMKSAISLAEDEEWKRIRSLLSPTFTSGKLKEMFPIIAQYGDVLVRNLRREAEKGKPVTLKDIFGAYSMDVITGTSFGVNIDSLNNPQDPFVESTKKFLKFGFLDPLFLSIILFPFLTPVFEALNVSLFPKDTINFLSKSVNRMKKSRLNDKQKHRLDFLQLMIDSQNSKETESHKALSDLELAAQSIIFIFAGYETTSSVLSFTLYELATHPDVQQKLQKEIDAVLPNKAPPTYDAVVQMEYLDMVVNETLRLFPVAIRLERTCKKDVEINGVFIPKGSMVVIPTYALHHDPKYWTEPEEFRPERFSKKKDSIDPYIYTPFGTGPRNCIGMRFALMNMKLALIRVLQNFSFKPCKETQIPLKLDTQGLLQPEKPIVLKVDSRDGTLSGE

Cytochrome P450 2C11 = target: T2, Cytochrome P450 2C11 (Rattus norvegicus, UniProt P08683); assay: Drug metabolism in […] rat liver microsomes assessed as CYP2C11-mediated 2-(4-(2-((1H-Benzo[d]imidazol-2-yl)thio)ethyl)piperazin-1-yl)-N-(6-methyl-4-(methylsulfinyl)-2-(methylthio)pyridin-3-yl)acetamide formation; assay type: ADME
T2 sequence (P08683 whole entry): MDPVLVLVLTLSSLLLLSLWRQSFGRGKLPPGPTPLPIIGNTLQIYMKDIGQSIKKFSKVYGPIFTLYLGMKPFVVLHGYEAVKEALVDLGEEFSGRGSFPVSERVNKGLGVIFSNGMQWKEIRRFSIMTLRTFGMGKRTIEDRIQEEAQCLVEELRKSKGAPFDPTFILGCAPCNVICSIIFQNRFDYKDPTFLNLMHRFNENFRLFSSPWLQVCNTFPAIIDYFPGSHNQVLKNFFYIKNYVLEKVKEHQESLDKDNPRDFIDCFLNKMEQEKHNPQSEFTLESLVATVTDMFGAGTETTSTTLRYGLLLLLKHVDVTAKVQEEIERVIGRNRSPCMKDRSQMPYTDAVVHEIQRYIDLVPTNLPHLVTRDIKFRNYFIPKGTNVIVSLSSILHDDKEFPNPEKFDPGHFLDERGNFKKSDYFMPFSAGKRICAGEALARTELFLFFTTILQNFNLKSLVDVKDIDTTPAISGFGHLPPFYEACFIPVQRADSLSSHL

Cytochrome P450 3A4 [2] = target: T3, Cytochrome P450 3A4 (Homo sapiens, UniProt P08684); assay: Drug metabolism in human liver microsomes assessed as CYP3A4-mediated 2-(4-(2-((1H-Benzo[d]imidazol-2-yl)thio)ethyl)piperazin-1-yl)-N-(6-methyl-4-(methylsulfinyl)-2-(methylthio)pyridin-3-yl)acetamide formation; assay type: ADME
T3 sequence (P08684 whole entry): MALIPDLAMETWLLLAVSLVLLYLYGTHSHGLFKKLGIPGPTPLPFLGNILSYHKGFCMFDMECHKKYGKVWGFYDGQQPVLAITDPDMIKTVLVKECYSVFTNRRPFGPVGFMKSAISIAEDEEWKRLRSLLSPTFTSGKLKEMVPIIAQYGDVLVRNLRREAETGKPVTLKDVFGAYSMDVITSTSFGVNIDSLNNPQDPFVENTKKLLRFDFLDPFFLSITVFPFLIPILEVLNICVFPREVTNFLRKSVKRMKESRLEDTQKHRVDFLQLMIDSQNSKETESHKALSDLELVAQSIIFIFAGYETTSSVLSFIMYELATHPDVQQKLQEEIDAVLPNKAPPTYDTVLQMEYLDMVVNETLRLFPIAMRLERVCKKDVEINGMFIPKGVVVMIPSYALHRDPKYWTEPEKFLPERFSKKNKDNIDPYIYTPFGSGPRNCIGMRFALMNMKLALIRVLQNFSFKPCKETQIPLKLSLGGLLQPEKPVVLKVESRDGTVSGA

Cytochrome P450 3A4 [3] = target: T3, Cytochrome P450 3A4; assay: Drug metabolism in human liver microsomes assessed as CYP3A4-mediated 2-(4-(2-((1H-Benzo[d]imidazol-2-yl)thio)ethyl)piperazin-1-yl)-N-(6-methyl-2-(methyl-sulfinyl)-4-(methylthio)pyridin-3-yl)acetamide formation; assay type: ADME
Cytochrome P450 [4] = assay: Drug metabolism in human liver microsomes assessed as Vmax for cytochrome p450-mediated 2-(4-(2-((1H-Benzo[d]imidazol-2-yl)thio)ethyl)piperazin-1-yl)-N-(6-methyl-2-(methyl-sulfinyl)-4-(methylthio)pyridin-3-yl)acetamide formation; assay type: ADME
Cytochrome P450 2C9 [5] = target: T4, Cytochrome P450 2C9 (Homo sapiens, UniProt P11712); assay: Drug metabolism in human liver microsomes assessed as CYP2C9-mediated 2-(4-(2-((1H-Benzo[d]imidazol-2-yl)thio)ethyl)piperazin-1-yl)-N-(6-methyl-4-(methylsulfinyl)-2-(methylthio)pyridin-3-yl)acetamide formation; assay type: ADME
T4 sequence (P11712 whole entry): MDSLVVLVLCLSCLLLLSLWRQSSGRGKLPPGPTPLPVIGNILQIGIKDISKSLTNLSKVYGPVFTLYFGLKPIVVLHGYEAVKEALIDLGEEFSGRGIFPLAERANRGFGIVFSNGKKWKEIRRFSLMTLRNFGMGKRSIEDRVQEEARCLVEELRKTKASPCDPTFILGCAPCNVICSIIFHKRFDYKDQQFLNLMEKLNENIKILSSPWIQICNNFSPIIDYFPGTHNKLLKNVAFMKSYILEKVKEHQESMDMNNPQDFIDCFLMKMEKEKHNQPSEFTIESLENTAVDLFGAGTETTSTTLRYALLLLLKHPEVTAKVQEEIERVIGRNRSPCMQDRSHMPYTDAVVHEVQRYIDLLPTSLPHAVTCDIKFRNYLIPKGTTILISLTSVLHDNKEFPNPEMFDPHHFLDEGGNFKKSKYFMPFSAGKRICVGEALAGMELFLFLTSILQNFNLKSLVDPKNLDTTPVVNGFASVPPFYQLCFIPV

[6] = Metabolic stability in female rat liver microsomes assessed as parent compound remaining; assay type: ADME, Microsome
Cytochrome P450 [7] = assay: Drug metabolism in human liver microsomes assessed as Vmax for cytochrome p450-mediated 2-(4-(2-((5-Hydroxy-1H-benzo[d]imidazol-2-yl)thio)ethyl)piperazin-1-yl)-N-(6-methyl-2,4-bis(methylthio)pyridin-3-yl)acetamide formation; assay type: ADME
[8] = Clearance in human liver microsomes assessed as 2-(4-(2-((1H-Benzo[d]imidazol-2-yl)thio)ethyl)piperazin-1-yl)-N-(6-methyl-2-(methyl-sulfinyl)-4-(methylthio)pyridin-3-yl)acetamide level per mg protein; assay type: ADME, Microsome
[9] = Drug metabolism in cynomolgus monkey plasma assessed as 2-(4-(2-((1H-Benzo[d]imidazol-2-yl)sulfinyl)ethyl)piperazin-1-yl)-N-(6-methyl-2,4-bis(methylthio)pyridin-3-yl)acetamide formation at 10 mg/kg, administered into stomach using nasogastric catheter measured upto 360 mins by column-switching HPLC method; assay type: ADME, organism-based, Macaca fascicularis; conditions: in vivo, po, 6 h
Cytochrome P450 [10] = assay: Drug metabolism in human liver microsomes assessed as Km for cytochrome p450-mediated 2-(4-(2-((1H-Benzo[d]imidazol-2-yl)thio)ethyl)piperazin-1-yl)-N-(6-methyl-4-(methylsulfinyl)-2-(methylthio)pyridin-3-yl)acetamide formation; assay type: ADME
Cytochrome P450 [11] = assay: Drug metabolism in human liver microsomes assessed as Km for cytochrome p450-mediated 2-(4-(2-((1H-Benzo[d]imidazol-2-yl)thio)ethyl)piperazin-1-yl)-N-(6-methyl-2-(methyl-sulfinyl)-4-(methylthio)pyridin-3-yl)acetamide formation; assay type: ADME
[12] = Clearance in human liver microsomes assessed as 2-(4-(2-((5-Hydroxy-1H-benzo[d]imidazol-2-yl)thio)ethyl)piperazin-1-yl)-N-(6-methyl-2,4-bis(methylthio)pyridin-3-yl)acetamide level per mg protein; assay type: ADME, Microsome
Cytochrome P450 3A5 [13] = target: T1, Cytochrome P450 3A5; assay: Drug metabolism in human liver microsomes assessed as CYP3A5-mediated 2-(4-(2-((1H-Benzo[d]imidazol-2-yl)thio)ethyl)piperazin-1-yl)-N-(6-methyl-2-(methyl-sulfinyl)-4-(methylthio)pyridin-3-yl)acetamide formation; assay type: ADME
[14] = Clearance in human liver microsomes assessed per mg protein for 5 mins in presence of NADPH by LC-MS/MS analysis; assay type: ADME, Microsome; conditions: read-out: CLH
Cytochrome P450 3A2 [15] = target: T5, Cytochrome P450 3A2 (Rattus norvegicus, UniProt P05183); assay: Drug metabolism in male rat liver microsomes assessed as CYP3A2-mediated 2-(4-(2-((1H-Benzo[d]imidazol-2-yl)thio)ethyl)piperazin-1-yl)-N-(6-methyl-4-(methylsulfinyl)-2-(methylthio)pyridin-3-yl)acetamide formation; assay type: ADME
T5 sequence (P05183 whole entry): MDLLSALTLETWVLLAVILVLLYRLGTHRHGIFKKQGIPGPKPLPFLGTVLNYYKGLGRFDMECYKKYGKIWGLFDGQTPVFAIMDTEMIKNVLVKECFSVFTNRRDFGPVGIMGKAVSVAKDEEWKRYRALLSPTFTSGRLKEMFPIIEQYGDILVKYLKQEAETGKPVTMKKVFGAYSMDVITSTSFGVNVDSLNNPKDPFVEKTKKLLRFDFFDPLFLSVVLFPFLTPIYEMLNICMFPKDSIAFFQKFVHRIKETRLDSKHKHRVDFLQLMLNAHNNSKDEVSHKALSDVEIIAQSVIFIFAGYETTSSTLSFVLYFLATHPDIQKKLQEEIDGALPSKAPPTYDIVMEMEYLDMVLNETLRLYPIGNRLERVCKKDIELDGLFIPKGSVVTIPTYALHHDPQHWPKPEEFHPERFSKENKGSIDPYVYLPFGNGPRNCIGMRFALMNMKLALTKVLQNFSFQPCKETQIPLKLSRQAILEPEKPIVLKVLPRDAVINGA

Cytochrome P450 3A5 [16] = target: T1, Cytochrome P450 3A5; assay: Drug metabolism in human liver microsomes assessed as CYP3A5-mediated 2-(4-(2-((1H-Benzo[d]imidazol-2-yl)sulfinyl)ethyl)piperazin-1-yl)-N-(6-methyl-2,4-bis(methylthio)pyridin-3-yl)acetamide formation; assay type: ADME
[17] = Drug metabolism in cynomolgus monkey plasma assessed as 2-(4-(2-((1H-Benzo[d]imidazol-2-yl)thio)ethyl)piperazin-1-yl)-N-(6-methyl-4-(methylsulfinyl)-2-(methylthio)pyridin-3-yl)acetamide formation at 10 mg/kg, administered into stomach using nasogastric catheter measured upto 360 mins by column-switching HPLC method; assay type: ADME, organism-based, Macaca fascicularis; conditions: in vivo, po, 6 h
Cytochrome P450 [18] = assay: Drug metabolism in human liver microsomes assessed as Vmax for cytochrome p450-mediated 2-(4-(2-((1H-Benzo[d]imidazol-2-yl)thio)ethyl)piperazin-1-yl)-N-(6-methyl-4-(methylsulfinyl)-2-(methylthio)pyridin-3-yl)acetamide formation; assay type: ADME
Cytochrome P450 2C9 [19] = target: T4, Cytochrome P450 2C9; assay: Drug metabolism in human liver microsomes assessed as CYP2C9-mediated 2-(4-(2-((1H-Benzo[d]imidazol-2-yl)thio)ethyl)piperazin-1-yl)-N-(6-methyl-2-(methyl-sulfinyl)-4-(methylthio)pyridin-3-yl)acetamide formation; assay type: ADME
Cytochrome P450 [20] = assay: Drug metabolism in human liver microsomes assessed as Km for cytochrome p450-mediated 2-(4-(2-((5-Hydroxy-1H-benzo[d]imidazol-2-yl)thio)ethyl)piperazin-1-yl)-N-(6-methyl-2,4-bis(methylthio)pyridin-3-yl)acetamide formation; assay type: ADME
Cytochrome P450 3A4 [21] = target: T3, Cytochrome P450 3A4; assay: Drug metabolism in human liver microsomes assessed as CYP3A4-mediated 2-(4-(2-((1H-Benzo[d]imidazol-2-yl)sulfinyl)ethyl)piperazin-1-yl)-N-(6-methyl-2,4-bis(methylthio)pyridin-3-yl)acetamide formation; assay type: ADME
Cytochrome P450 2C9 [22] = target: T4, Cytochrome P450 2C9; assay: Drug metabolism in human liver microsomes assessed as CYP2C9-mediated 2-(4-(2-((5-Hydroxy-1H-benzo[d]imidazol-2-yl)thio)ethyl)piperazin-1-yl)-N-(6-methyl-2,4-bis(methylthio)pyridin-3-yl)acetamide formation; assay type: ADME
Cytochrome P450 2D6 = Cytochrome P450 2D6 (Homo sapiens, UniProt P10635); assay: Drug metabolism in human liver microsomes assessed as CYP2D6-mediated 2-(4-(2-((1H-Benzo[d]imidazol-2-yl)thio)ethyl)piperazin-1-yl)-N-(6-methyl-4-(methylsulfinyl)-2-(methylthio)pyridin-3-yl)acetamide formation; assay type: ADME
Chain of Cytochrome P450 2D6 (P10635 whole entry): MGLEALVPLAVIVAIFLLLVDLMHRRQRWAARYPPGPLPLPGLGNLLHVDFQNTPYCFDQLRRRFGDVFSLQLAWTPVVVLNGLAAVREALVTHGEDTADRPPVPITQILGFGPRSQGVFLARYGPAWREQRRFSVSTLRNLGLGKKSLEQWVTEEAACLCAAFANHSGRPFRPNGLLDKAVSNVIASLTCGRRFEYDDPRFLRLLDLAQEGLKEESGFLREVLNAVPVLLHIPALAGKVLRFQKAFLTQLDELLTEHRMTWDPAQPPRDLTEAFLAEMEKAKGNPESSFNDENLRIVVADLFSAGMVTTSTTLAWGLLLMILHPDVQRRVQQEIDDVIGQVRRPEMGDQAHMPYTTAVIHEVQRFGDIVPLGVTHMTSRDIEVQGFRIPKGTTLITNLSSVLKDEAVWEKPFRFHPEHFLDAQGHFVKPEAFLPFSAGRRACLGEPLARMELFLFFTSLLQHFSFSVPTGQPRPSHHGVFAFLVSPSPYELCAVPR

Cytochrome P450 3A2 [23] = target: T5, Cytochrome P450 3A2; assay: Drug metabolism in male rat liver microsomes assessed as CYP3A2-mediated 2-(4-(2-((1H-Benzo[d]imidazol-2-yl)thio)ethyl)piperazin-1-yl)-N-(6-methyl-2-(methyl-sulfinyl)-4-(methylthio)pyridin-3-yl)acetamide formation; assay type: ADME
Cytochrome P450 3A5 [24] = target: T1, Cytochrome P450 3A5; assay: Drug metabolism in human liver microsomes assessed as CYP3A5-mediated 2-(4-(2-((5-Hydroxy-1H-benzo[d]imidazol-2-yl)thio)ethyl)piperazin-1-yl)-N-(6-methyl-2,4-bis(methylthio)pyridin-3-yl)acetamide formation; assay type: ADME
Cytochrome P450 [25] = assay: Drug metabolism in human liver microsomes assessed as Km for cytochrome p450-mediated 2-(4-(2-((1H-Benzo[d]imidazol-2-yl)sulfinyl)ethyl)piperazin-1-yl)-N-(6-methyl-2,4-bis(methylthio)pyridin-3-yl)acetamide formation; assay type: ADME
[26] = Metabolic stability in male rat liver microsomes assessed as assessed as parent compound remaining; assay type: ADME, Microsome
[27] = Clearance in human liver microsomes assessed as 2-(4-(2-((1H-Benzo[d]imidazol-2-yl)sulfinyl)ethyl)piperazin-1-yl)-N-(6-methyl-2,4-bis(methylthio)pyridin-3-yl)acetamide level per mg protein; assay type: ADME, Microsome
[28] = Drug metabolism in cynomolgus monkey plasma assessed as 2-(4-(2-((1H-Benzo[d]imidazol-2-yl)thio)ethyl)piperazin-1-yl)-N-(6-methyl-2-(methyl-sulfinyl)-4-(methylthio)pyridin-3-yl)acetamide formation at 10 mg/kg, administered into stomach using nasogastric catheter measured upto 360 mins by column-switching HPLC method; assay type: ADME, organism-based, Macaca fascicularis; conditions: in vivo, po, 6 h
Cytochrome P450 3A4 [29] = target: T3, Cytochrome P450 3A4; assay: Drug metabolism in human liver microsomes assessed as CYP3A4-mediated 2-(4-(2-((5-Hydroxy-1H-benzo[d]imidazol-2-yl)thio)ethyl)piperazin-1-yl)-N-(6-methyl-2,4-bis(methylthio)pyridin-3-yl)acetamide formation; assay type: ADME
Cytochrome P450 [30] = assay: Drug metabolism in human liver microsomes assessed as Vmax for cytochrome p450-mediated 2-(4-(2-((1H-Benzo[d]imidazol-2-yl)sulfinyl)ethyl)piperazin-1-yl)-N-(6-methyl-2,4-bis(methylthio)pyridin-3-yl)acetamide formation; assay type: ADME
[31] = Clearance in human liver microsomes assessed as 2-(4-(2-((1H-Benzo[d]imidazol-2-yl)thio)ethyl)piperazin-1-yl)-N-(6-methyl-4-(methylsulfinyl)-2-(methylthio)pyridin-3-yl)acetamide level per mg protein; assay type: ADME, Microsome
[32] = Drug metabolism in cynomolgus monkey plasma assessed as 2-(4-(2-((5-Hydroxy-1H-benzo[d]imidazol-2-yl)thio)ethyl)piperazin-1-yl)-N-(6-methyl-2,4-bis(methylthio)pyridin-3-yl)acetamide formation at 10 mg/kg, administered into stomach using nasogastric catheter measured upto 360 mins by column-switching HPLC method; assay type: ADME, organism-based, Macaca fascicularis; conditions: in vivo, po, 6 h
Cytochrome P450 2C9 [33] = target: T4, Cytochrome P450 2C9; assay: Drug metabolism in human liver microsomes assessed as CYP2C9-mediated 2-(4-(2-((1H-Benzo[d]imidazol-2-yl)sulfinyl)ethyl)piperazin-1-yl)-N-(6-methyl-2,4-bis(methylthio)pyridin-3-yl)acetamide formation; assay type: ADME
[34] = Metabolic stability in cynomolgus monkey plasma assessed as parent compound remaining formation at 10 mg/kg, administered into stomach using nasogastric catheter measured upto 360 mins by column-switching HPLC method; assay type: ADME, organism-based, Macaca fascicularis; conditions: in vivo, po, 6 h

## CSc1cc(C)nc(SC)c1NC(=O)CN1CCN(CCSc2nc3ccccc3[nH]2)CC1.Cl
Cytochrome P450 3A5 [1]
  Drug metabolism: Metabolite_Detected
Cytochrome P450 2C11
  Drug metabolism: Metabolite_Notdetected
Cytochrome P450 3A4 [2]
  Drug metabolism: Metabolite_Detected
Cytochrome P450 3A4 [3]
  Drug metabolism: Metabolite_Detected
Cytochrome P450 [4]
  Vmax: 363 pmol/min/mg
Cytochrome P450 2C9 [5]
  Drug metabolism: Metabolite_Notdetected
[6]
  Stabilty: 76.1%
Cytochrome P450 [7]
  Vmax: 343 pmol/min/mg
[8]
  CLH: 125 µL/min
[9]
  Drug metabolism: Metabolite_Detected
Cytochrome P450 [10]
  Km: 1.3 µM
Cytochrome P450 [11]
  Km: 4.3 µM
[12]
  CLH: 168 µL/min
Cytochrome P450 3A5 [13]
  Drug metabolism: Metabolite_Detected
[14]
  microsomal CLint: 720 µL/min/mg
Cytochrome P450 3A2 [15]
  Drug metabolism: Metabolite_Detected
Cytochrome P450 3A5 [16]
  Drug metabolism: Metabolite_Detected
[17]
  Drug metabolism: Metabolite_Detected
Cytochrome P450 [18]
  Vmax: 1773 pmol/min/mg
Cytochrome P450 2C9 [19]
  Drug metabolism: Metabolite_Notdetected
Cytochrome P450 [20]
  Km: 2 µM
Cytochrome P450 3A4 [21]
  Drug metabolism: Metabolite_Detected
Cytochrome P450 2C9 [22]
  Drug metabolism: Metabolite_Notdetected
Cytochrome P450 2D6
  Drug metabolism: Metabolite_Detected
Cytochrome P450 3A2 [23]
  Drug metabolism: Metabolite_Detected
Cytochrome P450 3A5 [24]
  Drug metabolism: Metabolite_Detected
Cytochrome P450 [25]
  Km: 2.6 µM
[26]
  Stabilty: 5.2%
[27]
  CLH: 219 µL/min
[28]
  Drug metabolism: Metabolite_Notdetected
Cytochrome P450 3A4 [29]
  Drug metabolism: Metabolite_Detected
Cytochrome P450 [30]
  Vmax: 558 pmol/min/mg
[31]
  CLH: 1353 µL/min
[32]
  Drug metabolism: Metabolite_Detected
Cytochrome P450 2C9 [33]
  Drug metabolism: Metabolite_Notdetected
[34]
  Stabilty: Stable
